Source: patent publication US9375496B2, “Halogenated compounds for cancer imaging and treatment and methods for their use” (The University of British Columbia, priority 2013, dated 2016)
Where two headings read alike, the source gives them in different places.

Tests used:
[1] = target: T1, AR (Homo sapiens, UniProt P10275, T878A); experiment: PSA(6.1 kb)-luciferase reporter assay in LNCaP cells (androgen-induced AR transcriptional activity); type: cell-based; settings: LNCaP, PSA(6.1 kb)-luciferase, 1 h pre-treatment, R1881 1 nM 24 h
T1 construct: LNCaP cells with endogenous AR; endogenous in cells; host or cells: LNCaP
T1 sequence (P10275 1-920 T878A): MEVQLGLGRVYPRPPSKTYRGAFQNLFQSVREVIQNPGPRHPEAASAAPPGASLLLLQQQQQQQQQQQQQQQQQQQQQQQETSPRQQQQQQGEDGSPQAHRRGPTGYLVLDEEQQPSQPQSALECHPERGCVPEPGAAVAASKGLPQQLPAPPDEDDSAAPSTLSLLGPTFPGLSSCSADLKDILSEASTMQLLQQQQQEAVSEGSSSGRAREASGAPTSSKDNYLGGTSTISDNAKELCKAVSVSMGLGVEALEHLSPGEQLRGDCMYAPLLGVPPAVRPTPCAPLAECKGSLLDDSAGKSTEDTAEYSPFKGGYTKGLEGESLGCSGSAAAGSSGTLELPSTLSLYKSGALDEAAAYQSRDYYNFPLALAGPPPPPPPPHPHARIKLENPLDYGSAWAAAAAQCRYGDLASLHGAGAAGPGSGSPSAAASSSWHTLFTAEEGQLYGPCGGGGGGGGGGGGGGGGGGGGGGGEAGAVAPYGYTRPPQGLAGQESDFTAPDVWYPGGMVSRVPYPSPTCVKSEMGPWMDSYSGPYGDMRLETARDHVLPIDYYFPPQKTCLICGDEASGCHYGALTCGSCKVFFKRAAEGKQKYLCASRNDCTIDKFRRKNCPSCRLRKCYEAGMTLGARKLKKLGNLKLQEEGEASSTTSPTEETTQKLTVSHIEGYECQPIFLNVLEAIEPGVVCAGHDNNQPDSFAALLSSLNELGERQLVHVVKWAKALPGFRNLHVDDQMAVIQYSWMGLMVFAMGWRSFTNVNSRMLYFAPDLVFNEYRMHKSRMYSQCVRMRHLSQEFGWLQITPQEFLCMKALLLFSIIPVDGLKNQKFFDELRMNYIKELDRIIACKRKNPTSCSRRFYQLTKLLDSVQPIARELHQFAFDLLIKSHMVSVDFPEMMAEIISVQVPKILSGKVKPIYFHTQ
Method: The PSA-luciferase (6.1 kb) reporter contains functional AREs to which AR binds in response to androgen to induce luciferase activity. LNCaP cells were transfected with the PSA(6.1 kb)-luciferase reporter for 24 h, and then treated with indicated concentration of 8d (also referred as EPI-iodide or iodinated EPI) with synthetic androgen, R1881 (1 nM) for 24 h. After 24 h of incubation with R1881, the cells were harvested, and relative luciferase activities were determined (FIG. 1A). To determine the IC50, treatments were normalized to the predicted maximal activity induction (in the absence of test compounds, vehicle only) (FIG. 1B).
To measure effect on AR, after the LNCaP cells were transfected with the PSA(6.1 kb)-luciferase reporter for 24 h, they were then treated with DMSO, 5 μM MDV3100, 25 μM Z (also referred to as EPI-002 or EPI), or 1.9 μM 8d with or without 1 nM R1881 for 24 h (FIG. 2A).
LNCaP cells were transiently transfected with PSA (6.1 kb)-luciferase for 24 h prior to pre-treatment with compounds of the invention (e.g., compounds 9d, 10d, 11d) ranging in concentration from 62.5 ng/ml to 1.5 ug/ml for 1 hour before the addition of vehicle, or synthetic androgen, R1881 (1 nM) to induce luciferase production. After 24 h of incubation with R1881, the cells were harvested, and relative luciferase activities were determined. To determine the IC50, treatments were normalized to the predicted maximal activity induction (in the absence of test compounds, vehicle only) (FIG. 1B).

[2] = target: T2, recombinant protein AR activation function-1 (AF1) (Homo sapiens, UniProt P10275); experiment: Covalent binding to recombinant AR AF1 evaluated by SDS-PAGE
T2 sequence (P10275 144-486 limits assumed): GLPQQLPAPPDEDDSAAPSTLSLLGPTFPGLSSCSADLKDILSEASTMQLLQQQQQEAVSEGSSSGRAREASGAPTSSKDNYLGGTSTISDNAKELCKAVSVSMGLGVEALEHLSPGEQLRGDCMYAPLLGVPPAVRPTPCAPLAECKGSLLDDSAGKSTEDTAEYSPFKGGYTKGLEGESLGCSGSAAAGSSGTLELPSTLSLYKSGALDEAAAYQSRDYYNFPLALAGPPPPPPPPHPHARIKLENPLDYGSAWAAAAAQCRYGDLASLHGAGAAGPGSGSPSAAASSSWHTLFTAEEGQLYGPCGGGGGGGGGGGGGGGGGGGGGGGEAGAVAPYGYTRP
Method: Covalent binding experiments of 1d (also referred to as ^123I-EPI) to recombinant protein AR activation function-1 (AF1) was evaluated by SDS-PAGE (FIG. 15). After 6 h incubation at room temperature, 1d bound to the recombinant protein AR AF1. Less binding of 1d was observed when AR AF1 was pre-incubated with cold Z which is thought to bind to the same site as 1d. The SDS-PAGE gel was stained with Coomassie blue for loading control of the amount of AF1 protein.

[3] = Trial 1, read-out: IC50 Trial 1
[4] = Trial 2, read-out: IC50 Trial 2
[5] = Trial 3, read-out: IC50 Trial 3
[6] = Trial 4, read-out: IC50 Trial 4
[7] = average of 4 trials, read-out: IC50 Average

Row | IC50 [1, 3] | IC50 [1, 4] | IC50 [1, 5] | IC50 [1, 6] | IC50 [1, 7] | SMILES | covalent binding to recombinant protein AR AF1 ([2]; 6 h incubation at room temperature) | binding to AR AF1 after pre-incubation with cold Z ([2]; AR AF1 pre-incubated with cold Z)
1 | 2070 nM | 2740 nM | 2960 nM | 3360 nM | 2780 nM | CC(C)(c1ccc(OC[C@H](O)CO)cc1)c1ccc(OC[C@H](O)CCl)c(Br)c1 [Compound 9d, (R)-3-(4-(2-(3-bromo-4-((S)-3-chloro-2-hydroxypropoxy)phenyl)propan-2-yl)phenoxy)propane-1,2-diol] | – | –
2 | 2530 nM | 2300 nM | 2810 nM | 2840 nM | 2620 nM | CC(C)(c1ccc(OC[C@H](O)CO)cc1)c1ccc(OC[C@H](O)CCl)c(Cl)c1 [Compound 10d, (R)-3-(4-(2-(3-chloro-4-((S)-3-chloro-2-hydroxypropoxy)phenyl)propan-2-yl)phenoxy)propane-1,2-diol] | – | –
3 | 5950 nM | 3600 nM | 7330 nM | 5400 nM | 5570 nM | CC(C)(c1ccc(OC[C@H](O)CO)cc1)c1ccc(OC[C@H](O)CCl)c(F)c1 [Compound 11d, (R)-3-(4-(2-(4-((S)-3-chloro-2-hydroxypropoxy)-3-fluorophenyl)propan-2-yl)phenoxy)propane-1,2-diol] | – | –
4 | – | – | – | – | – | CC(C)(c1ccc(OC[C@H](O)CO)cc1)c1ccc(OC[C@H](O)CCl)c([123I])c1 [Compound 1d, (R)-3-(4-(2-(4-((S)-3-chloro-2-hydroxypropoxy)-3- ^123iodophenyl)propan-2-yl)phenoxy)propane-1,2-diol] | bound | Less binding
